According to patent US11524966B1 (Valo Early Discovery, Inc., priority 2017, dated 2022):

target: T1, USP25 (USP25-His6, Boston Biochem E-546) (Homo sapiens, UniProt Q9UHP3); test: Ubiquitin-Rhodamine 110 Assay for USP25 Activity, Example A-2; type: biochemical; settings: Ubiquitin-Rhodamine 110 assay, Example A-2; read-out: USP25 A-2 IC50 range
T1 construct: His6; purchased Boston Biochem E-546
T1 sequence (Q9UHP3 1-1055): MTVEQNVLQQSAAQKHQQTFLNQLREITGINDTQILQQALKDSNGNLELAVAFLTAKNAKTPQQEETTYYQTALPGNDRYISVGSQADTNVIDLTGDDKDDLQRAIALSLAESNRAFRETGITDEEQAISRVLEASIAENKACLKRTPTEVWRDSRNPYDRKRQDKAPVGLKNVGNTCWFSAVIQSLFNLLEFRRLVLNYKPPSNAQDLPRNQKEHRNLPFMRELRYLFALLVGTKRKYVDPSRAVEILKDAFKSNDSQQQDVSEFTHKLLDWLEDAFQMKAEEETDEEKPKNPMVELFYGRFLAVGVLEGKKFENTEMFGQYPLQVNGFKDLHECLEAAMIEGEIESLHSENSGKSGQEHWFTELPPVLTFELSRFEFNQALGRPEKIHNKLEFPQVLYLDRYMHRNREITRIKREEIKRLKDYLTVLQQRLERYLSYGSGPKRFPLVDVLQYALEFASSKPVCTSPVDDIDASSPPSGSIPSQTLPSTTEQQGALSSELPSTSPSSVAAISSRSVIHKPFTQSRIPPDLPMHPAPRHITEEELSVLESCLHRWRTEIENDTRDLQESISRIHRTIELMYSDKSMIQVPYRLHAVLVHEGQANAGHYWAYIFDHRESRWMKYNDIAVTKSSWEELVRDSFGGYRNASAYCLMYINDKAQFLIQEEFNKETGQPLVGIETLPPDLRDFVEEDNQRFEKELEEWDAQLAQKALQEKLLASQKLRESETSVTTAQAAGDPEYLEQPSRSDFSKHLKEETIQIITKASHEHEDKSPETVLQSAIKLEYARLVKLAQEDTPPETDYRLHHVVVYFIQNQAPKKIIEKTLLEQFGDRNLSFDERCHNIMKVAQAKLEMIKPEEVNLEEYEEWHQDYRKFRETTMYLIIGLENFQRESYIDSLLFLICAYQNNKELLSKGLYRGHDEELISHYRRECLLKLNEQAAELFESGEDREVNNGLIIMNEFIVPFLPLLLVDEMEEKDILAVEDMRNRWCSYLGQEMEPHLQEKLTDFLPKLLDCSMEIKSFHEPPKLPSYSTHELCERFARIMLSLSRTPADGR
Outline: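 USP25-His6 (75 pM) was preincubated with compound (10-point, 3-fold series, 25 μM to 1.3 nM) for 30 min in 20 mM Tris-HCl pH 8.0, 3 mM BME, 0.03% BGG, 0.01% Triton X-100. Ub-Rh110 (25 nM, <<Km) was then added for 45 min at room temperature, citric acid-stopped, and fluorescence read at 485/535 nm.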

First: CCO[C@H]1CN(c2ccc3c(n2)CC[C@H](NC(=O)c2sc4nc(C)ccc4c2N)C3)C[C@H]1N [Example 255, 3-amino-N-[(6S)-2-[(3R,4S)-3-amino-4-ethoxypyrrolidin-1-yl]-5,6,7,8-tetrahydroquinolin-6-yl]-6-methylthieno[2,3-b]pyridine-2-carboxamide]
Second: COC[C@@H]1C[C@@H](N)CN1c1ccc2c(c1)OC[C@H](NC(=O)c1sc3nc(C)ccc3c1N)C2 [Example 260, 3-amino-N-[(3R)-7-[(25,4R)-4-amino-2-(methoxymethyl)pyrrolidin-1-yl]-3,4-dihydro-2H-1-benzopyran-3-yl]-6-methylthieno[2,3-b]pyridine-2-carboxamide]
The IC50 of the first is higher: over 2000 nM for the first, 1 to 50 nM for the second.

Compared with Cc1ccc2c(N)c(C(=O)N[C@H]3COc4cc(N5C[C@H](N)C(F)(F)C5)ccc4C3)sc2n1 [Example 256, 3-amino-N-[(3R)-7-[(4S)-4-amino-3,3-difluoropyrrolidin-1-yl]-3,4-dihydro-2H-1-benzopyran-3-yl]-6-methylthieno[2,3-b]pyridine-2-carboxamide], Cc1ccc2c(N)c(C(=O)N[C@H]3COc4cc(N5C[C@@H](N)C(F)(F)C5)ccc4C3)sc2n1 [Example 257, 3-amino-N-[(3R)-7-[(4R)-4-amino-3,3-difluoropyrrolidin-1-yl]-3,4-dihydro-2H-1-benzopyran-3-yl]-6-methylthieno[2,3-b]pyridine-2-carboxamide] is lower in IC50: 200 to 2000 nM for the first, 50 to 200 nM for the second.

Cc1ccc2c(N)c(C(=O)N[C@H]3COc4cc(N5C[C@H](N)C6(COC6)C5)ccc4C3)sc2n1 [Example 258, 3-amino-N-[(3R)-7-[(8R)-8-amino-2-oxa-6-azaspiro[3.4]octan-6-yl]-3,4-dihydro-2H-1-benzopyran-3-yl]-6-methylthieno[2,3-b]pyridine-2-carboxamide] and Cc1ccc2c(N)c(C(=O)N[C@H]3COc4cc(N5C[C@@H](N)C6(COC6)C5)ccc4C3)sc2n1 [Example 259, 3-amino-N-[(3R)-7-[(8S)-8-amino-2-oxa-6-azaspiro[3.4]octan-6-yl]-3,4-dihydro-2H-1-benzopyran-3-yl]-6-methylthieno[2,3-b]pyridine-2-carboxamide] fall in the same range of IC50: 200 to 2000 nM for the first, 200 to 2000 nM for the second.
